In PubChem BioAssay AID1963435 (Molecular Pharmacology Branch, DTP, NCI, 2024):
pIC50: −log10 of the molar value.

Tested on: PANC-1 complex spheroid growth, percent test/control
Assay: Anticancer human tumor PANC-1 cell line growth inhibition [Asc];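 note: spheroids exposed to agents for 7 days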;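 for viability, T/C: percent viability relative to DMSO vehicle wells taken as 100%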
Conditions: for pIC50: curve of first compound; for viability, T/C: stronger effect = lower value
Method in brief: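 Stromal components (HUVEC and hMSC) are co-assembled with the cancer cells into multicellular spheroids. Drugs are then added singly or paired, at concentrations falling by half-log increments from a clinically achievable maximum, capped at 10 microM without known Cmax.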

[1] = second compound 0.0316 µM, first compound 0.0316 µM
[2] = second compound 0.0316 µM, first compound 0.1 µM
[3] = second compound 0.0316 µM, first compound 0.316 µM
[4] = second compound 0.0316 µM, first compound 1 µM
[5] = second compound 0.1 µM, first compound 0.0316 µM
[6] = second compound 0.1 µM, first compound 0.1 µM
[7] = second compound 0.1 µM, first compound 0.316 µM
[8] = second compound 0.1 µM, first compound 1 µM
[9] = second compound 0.316 µM, first compound 0.0316 µM
[10] = second compound 0.316 µM, first compound 0.1 µM
[11] = second compound 0.316 µM, first compound 0.316 µM
[12] = second compound 0.316 µM, first compound 1 µM
[13] = second compound 1 µM, first compound 0.0316 µM
[14] = second compound 1 µM, first compound 0.1 µM
[15] = second compound 1 µM, first compound 0.316 µM
[16] = second compound 1 µM, first compound 1 µM
[17] = second compound 3.16 µM, first compound 0.0316 µM
[18] = second compound 3.16 µM, first compound 0.1 µM
[19] = second compound 3.16 µM, first compound 0.316 µM
[20] = second compound 3.16 µM, first compound 1 µM
[21] = second compound 10 µM, first compound 0.0316 µM
[22] = second compound 10 µM, first compound 0.1 µM
[23] = second compound 10 µM, first compound 0.316 µM
[24] = second compound 10 µM, first compound 1 µM
[25] = second compound 0.0316 µM, first compound 3.16 µM
[26] = second compound 0.0316 µM, first compound 10 µM
[27] = second compound 0.1 µM, first compound 3.16 µM
[28] = second compound 0.1 µM, first compound 10 µM
[29] = second compound 0.316 µM, first compound 3.16 µM
[30] = second compound 0.316 µM, first compound 10 µM
[31] = second compound 1 µM, first compound 3.16 µM
[32] = second compound 1 µM, first compound 10 µM

For `O=C(c1ccc(F)c(F)c1Nc1ccc(I)cc1F)N1CC(O)([C@@H]2CCCCN2)C1` + Cc1c(S(C)(=O)=O)c(-c2cc(F)cc(N3CCN(c4ccc(NS(=O)(=O)c5ccc(NC(CCN6CCC(C(=O)OCCCP(=O)(O)O)CC6)CSc6ccccc6)c(S(=O)(=O)C(F)(F)F)c5)cc4)CC3)c2)c(-c2ccc(Cl)cc2)n1C(C)C, the pIC50 (second compound 0.0316 µM) was less than 6.00, the pIC50 (second compound 0.1 µM) was less than 6.00 and the pIC50 (second compound 0.316 µM) was less than 6.00. The pIC50 (second compound 1 µM) was less than 6.00, the pIC50 (second compound 3.16 µM) was less than 6.00 and the pIC50 (second compound 10 µM) was less than 6.00. For the same molecule, the viability, T/C (second compound 0.0316 µM, first compound 0.00316 µM) was 82.4%, the viability, T/C (second compound 0.0316 µM, first compound 0.01 µM) was 88% and the viability, T/C [1] was 85.4%. For the same molecule, the viability, T/C [2] was 86.8%, the viability, T/C [3] was 93% and the viability, T/C [4] was 89%. The viability, T/C (second compound 0.1 µM, first compound 0.00316 µM) was 96.5%, the viability, T/C (second compound 0.1 µM, first compound 0.01 µM) was 109% and the viability, T/C [5] was 96%. The viability, T/C [6] was 84.6%, the viability, T/C [7] was 91.8% and the viability, T/C [8] was 91.1%. The viability, T/C (second compound 0.316 µM, first compound 0.00316 µM) was 99.8%, the viability, T/C (second compound 0.316 µM, first compound 0.01 µM) was 93.5% and the viability, T/C [9] was 86.2%. The viability, T/C [10] was 89.6%, the viability, T/C [11] was 83.8% and the viability, T/C [12] was 84%. It also gave a viability, T/C (second compound 1 µM, first compound 0.00316 µM) of 89.9%, a viability, T/C (second compound 1 µM, first compound 0.01 µM) of 87.2% and a viability, T/C [13] of 88%. For the same molecule, the viability, T/C [14] was 87.7%, the viability, T/C [15] was 94.8% and the viability, T/C [16] was 85%. It also gave a viability, T/C (second compound 3.16 µM, first compound 0.00316 µM) of 104%, a viability, T/C (second compound 3.16 µM, first compound 0.01 µM) of 97.1% and a viability, T/C [17] of 89.3%. For the same molecule, the viability, T/C [18] was 88.6%, the viability, T/C [19] was 83.3% and the viability, T/C [20] was 78.1%. It also gave a viability, T/C (second compound 10 µM, first compound 0.00316 µM) of 173%, a viability, T/C (second compound 10 µM, first compound 0.01 µM) of 175% and a viability, T/C [21] of 157%. For the same molecule, the viability, T/C [22] was 132%, the viability, T/C [23] was 142% and the viability, T/C [24] was 131%.

Work on `C=C(F)C(=O)N1CCN(c2nc(OCC3CCCN3C)nc3c2CCN(c2cccc4cccc(Cl)c24)C3)CC1CC#N` (stereo unspecified) + Cc1c(S(C)(=O)=O)c(-c2cc(F)cc(N3CCN(c4ccc(NS(=O)(=O)c5ccc(NC(CCN6CCC(C(=O)OCCCP(=O)(O)O)CC6)CSc6ccccc6)c(S(=O)(=O)C(F)(F)F)c5)cc4)CC3)c2)c(-c2ccc(Cl)cc2)n1C(C)C yielded a pIC50 (second compound 0.0316 µM) of 5.23, a pIC50 (second compound 0.1 µM) of 5.23 and a pIC50 (second compound 0.316 µM) of 5.27. For the same molecule, the pIC50 (second compound 1 µM) was 5.28, the pIC50 (second compound 3.16 µM) was 5.30 and the pIC50 (second compound 10 µM) was 5.23. It also gave a viability, T/C [1] of 94.6%, a viability, T/C [2] of 95.8% and a viability, T/C [3] of 106%. The viability, T/C [4] was 100%, the viability, T/C [25] was 92.4% and the viability, T/C [26] was 12.5%. It also gave a viability, T/C [5] of 97.4%, a viability, T/C [6] of 87.6% and a viability, T/C [7] of 113%. It also gave a viability, T/C [8] of 103%, a viability, T/C [27] of 98% and a viability, T/C [28] of 7.53%. It also gave a viability, T/C [9] of 101%, a viability, T/C [10] of 101% and a viability, T/C [11] of 109%. For the same molecule, the viability, T/C [12] was 103%, the viability, T/C [29] was 91.3% and the viability, T/C [30] was 3.26%. The viability, T/C [13] was 97.8%, the viability, T/C [14] was 98.2% and the viability, T/C [15] was 117%. It also gave a viability, T/C [16] of 107%, a viability, T/C [31] of 88.1% and a viability, T/C [32] of 1.2%. For the same molecule, the viability, T/C [17] was 104%, the viability, T/C [18] was 113% and the viability, T/C [19] was 114%. For the same molecule, the viability, T/C [20] was 114%, the viability, T/C (second compound 3.16 µM, first compound 3.16 µM) was 80% and the viability, T/C (second compound 3.16 µM, first compound 10 µM) was 4.62%. The viability, T/C [21] was 181%, the viability, T/C [22] was 180% and the viability, T/C [23] was 189%. The viability, T/C [24] was 194%, the viability, T/C (second compound 10 µM, first compound 3.16 µM) was 108% and the viability, T/C (second compound 10 µM, first compound 10 µM) was 0.69%.

`C=CC(=O)N1CCN(c2nc(=O)n(-c3c(C)ccnc3C(C)C)c3nc(-c4c(O)cccc4F)c(F)cc23)C(C)C1` (stereo unspecified) + CNC(C)C(=O)NC1CN(S(=O)(=O)c2cccc(S(=O)(=O)N3CCC4CCC(C(=O)NC(c5ccccc5)c5ccccc5)N4C(=O)C(NC(=O)C(C)NC)C3)c2)CCC2CCC(C(=O)NC(c3ccccc3)c3ccccc3)N2C1=O gave a pIC50 (second compound 0.00316 µM) of less than 5.00, a pIC50 (second compound 0.01 µM) of less than 5.00 and a pIC50 (second compound 0.0316 µM) of less than 5.00. For the same molecule, the pIC50 (second compound 0.1 µM) was less than 5.00, the pIC50 (second compound 0.316 µM) was less than 5.00 and the pIC50 (second compound 1 µM) was less than 5.00. It also gave a viability, T/C (second compound 0.00316 µM, first compound 0.0316 µM) of 103%, a viability, T/C (second compound 0.00316 µM, first compound 0.1 µM) of 88.3% and a viability, T/C (second compound 0.00316 µM, first compound 0.316 µM) of 103%. For the same molecule, the viability, T/C (second compound 0.00316 µM, first compound 1 µM) was 92.3%, the viability, T/C (second compound 0.00316 µM, first compound 3.16 µM) was 118% and the viability, T/C (second compound 0.00316 µM, first compound 10 µM) was 97.5%. For the same molecule, the viability, T/C (second compound 0.01 µM, first compound 0.0316 µM) was 100%, the viability, T/C (second compound 0.01 µM, first compound 0.1 µM) was 92.8% and the viability, T/C (second compound 0.01 µM, first compound 0.316 µM) was 102%. For the same molecule, the viability, T/C (second compound 0.01 µM, first compound 1 µM) was 97%, the viability, T/C (second compound 0.01 µM, first compound 3.16 µM) was 101% and the viability, T/C (second compound 0.01 µM, first compound 10 µM) was 95%. It also gave a viability, T/C [1] of 91.2%, a viability, T/C [2] of 94.1% and a viability, T/C [3] of 102%. For the same molecule, the viability, T/C [4] was 95.8%, the viability, T/C [25] was 105% and the viability, T/C [26] was 93.3%. For the same molecule, the viability, T/C [5] was 102%, the viability, T/C [6] was 96.2% and the viability, T/C [7] was 100%. It also gave a viability, T/C [8] of 100%, a viability, T/C [27] of 89.7% and a viability, T/C [28] of 88.6%. For the same molecule, the viability, T/C [9] was 98.2%, the viability, T/C [10] was 92.3% and the viability, T/C [11] was 112%. The viability, T/C [12] was 96.4%, the viability, T/C [29] was 86.2% and the viability, T/C [30] was 94.2%. It also gave a viability, T/C [13] of 94.7%, a viability, T/C [14] of 91.2% and a viability, T/C [15] of 109%. For the same molecule, the viability, T/C [16] was 94.2%, the viability, T/C [31] was 97.1% and the viability, T/C [32] was 96.3%.
